Measured values taken from US20240058310A1, “METHODS OF TREATING DISEASES AND DISORDERS ASSOCIATED WITH CALCIUM ION SIGNALING” (Temple University-Of the Commonwealth System of Higher …, priority 2022, published 2024).

How the values were obtained:
[1] = tested on: WM983 human melanoma cells; experiment: Matrigel transwell invasion assay, WM983 cells; format: cell-based; design: invasion (Matrigel transwell): dose or concentration left out as unconfirmed
Experimental: (§1) Transwell Migration Assays—Transwell migration assays were performed as previously described (Hooper, R., et al., 2015, Molecular & Cellular Biology, 35:2790-2798). Briefly, Matrigel® transwell chambers (Corning, Bedford, MA) were hydrated with serum-free OptiMEM for 2 hours (37° C., 5% CO2) prior to the addition of 2,500 cells/well. Growth optimal media was placed on the bottom of the chamber prior to incubation (20 hours; 37° C., 5% CO2). After incubation, media was removed, and edges were cleaned before methanol fixation and staining with crystal violet (0.5%, 2 min). Images were taken by EVOS cell imager and quantified on ImageJ.

[2] = tested on: SOCE in UACC257 human melanoma cells; experiment: SOCE measurement (Fura2, Tg then Ca2+ re-addition) in UACC257 cells; format: cell-based; details: non-SOCE suppressed UACC257 UV5 cells; overnight treatment
Experimental: (§2) UV Exposure—Cells were plated on glass coverslips for 24 hours before changing to PBS. Lids were replaced with a thin layer of taut plastic wrap before irradiating with a broadband UV spectrum containing 35% UVA and 65% UVB (with peak emission at 313 nm in the UVB range (De Fabo, E. C., et al, 2004, Cancer Research, 64:6372-6376)). Cells received a total UV dose of 175 J/m^2 over 90 seconds at a rate of 1.94 W/m^2. Approximately 80% of the melanoma cells survive this exposure. Cells were passaged 1:10 every 3 days and cultured under growth optimal conditions for the indicated time period (see Cell Culture below) before subsequent experimentation.
(§3) SOCE Measurement—Cells grown on glass coverslips were incubated in a cation-safe buffer (107 mM NaCl, 7.2 mM KCl, 1.2 mM MgCl2, 11.5 mM Glucose, 20 mM HEPES-NaOH, 1 mM CaCl2, pH 7.2) and loaded with Fura2-acetoxymethylester (Fura2-AM; 2 μM) for 30 min at 24° C. as previously described (Go, C. K., et al, 2019, Science Signaling, 12; Hooper, R., et al., 2015, Molecular and Cellular Biology, 35:2790-2798). Cells were washed and allowed to de-esterify for a minimum of 30 min at 24° C. […] Ca^2+ measurements were taken using a Leica DMI 6000B fluorescence microscope controlled by Slidebook software (Intelligent Imaging Innovations, Denver, CO). […]

[3] = tested on: SOCE in WM983 human melanoma cells; experiment: SOCE measurement (Fura2, Tg then Ca2+ re-addition) in WM983 cells; format: cell-based
Experimental: as §2
(§4) SOCE Measurement—Cells grown on glass coverslips were incubated in a cation-safe buffer (107 mM NaCl, 7.2 mM KCl, 1.2 mM MgCl2, 11.5 mM Glucose, 20 mM HEPES-NaOH, 1 mM CaCl2, pH 7.2) and loaded with Fura2-acetoxymethylester (Fura2-AM; 2 μM) for 30 min at 24° C. as previously described (Go, C. K., et al, 2019, Science Signaling, 12; Hooper, R., et al., 2015, Molecular and Cellular Biology, 35:2790-2798). Cells were washed and allowed to de-esterify for a minimum of 30 min at 24° C. Following de-esterification, cells were treated with 2 μM Thapsigargin (SERCA inhibitor) for 10 minutes prior to imaging. Ca^2+ measurements were taken using a Leica DMI 6000B fluorescence microscope controlled by Slidebook software (Intelligent Imaging Innovations, Denver, CO). Fluorescence emission at 505 nm was monitored in response to excitation at alternating 340 nm and 380 nm wavelengths at a frequency of 0.67 Hz; intracellular Ca^2+ measurements are shown at 340/380 nm ratios obtained from groups (2-45 for patient samples, 35-45 for established cell lines) of single cells.

[4] = tested on: patient melanoma surgical explant cells; experiment: Matrigel transwell invasion assay, patient explant cells; format: cell-based, human; details: TAK475 10 μM, compactin 2 μM, IA65 2 μM or OSMI1 40 μM; 20 hours
Experimental: as §1
Isolation of Cells from Patient Surgical Explants—Tissue was incubated in DMEM containing Liberase® TL (Roche Applied Science; 37° C., 30 min). Following incubation, tissue was cut using a sharp razor and dissociated through 50 μM Medicon screens (Becton Dickinson Biosciences, San Jose, CA; 2 min). Tissue samples were resuspended in DFD media (DMEM, 20% FBS; 500 ug/ml DNAse I, Sigma, St. Louis, MO) and passed through an 18-gauge syringe to break up clumps of cells before filtration (70 μm, Corning, Glendale, AZ, centrifugation and resuspension in DMEM (2% FBS; 1% Gentamycin) for 3 days before use.

[5] = tested on: SOCE in patient melanoma surgical explant cells; experiment: SOCE measurement in cells from patient surgical explants; format: cell-based, human; details: patient explant cells treated with drug in presence of Tg, 15 minutes
Experimental: as §4
Isolation of Cells from Patient Surgical Explants—Tissue was incubated in DMEM containing Liberase® TL (Roche Applied Science; 37° C., 30 min). Following incubation, tissue was cut using a sharp razor and dissociated through 50 μM Medicon screens (Becton Dickinson Biosciences, San Jose, CA; 2 min). […]

[6] = tested on: B16N murine melanoma cells; experiment: Matrigel transwell invasion assay, B16N cells; format: cell-based; design: invasion (Matrigel transwell): dose or concentration left out as unconfirmed
Experimental: as §1

melanoma metastasis = details: mice; literature reports; cited from earlier work
[7] = tested on: melanoma cells (WM983, B16N); experiment: Viability assay (Trypan Blue); format: cell-based; details: 2 μM IA65 overnight, control, UV2, UV5 cells
Experimental: Viability Assays—500,000 cells were plated in 24 well plates overnight in the absence or presence of 2 μM IA65. Cells were then trypsinized with 0.25% Trypsin-EDTA for 10 minutes at 37° C. Following, cells were treated with 0.4% Trypan Blue and placed in a Bio-Rad slidereader and the number of stained vs. unstained cells compared.

[8] = tested on: SOCE in B16N murine melanoma cells; experiment: SOCE measurement (Fura2, Tg then Ca2+ re-addition) in B16N cells; format: cell-based; details: B16N control, UV2, UV5, O1C44; 2 μM IA65
Experimental: as §2, §3

[9] = tested on: WM983 human melanoma cells; experiment: Scratch (wound) migration assay, WM983 cells; format: cell-based; details: 2 μM IA65, 0-, 10-, 20-hour
Experimental: Migration Assay—Cells were plated on glass coverslips (Ibidi, Fitchburg, WI) overnight to form a complete monolayer before “wounding” with a p20 pipette tip. Coverslips were placed in an incubation chamber (37° C.; 5% CO2) and monitored by confocal microscopy (Leica SP8 Laser Scanning Microscope). Z-stack brightfield images were obtained every 20 minutes for 20 hours; the % of the wound that was refilled over time was calculated using ImageJ.

In the case of `COc1cccc([C@H]2O[C@H](CC(=O)N3CCC(CC(=O)O)CC3)C(=O)N(CC(C)(C)COC(C)=O)c3ccc(Cl)cc32)c1OC` [TAK475], the “UV-induced increases in melanoma invasiveness through Matrigel” value ([1]; UV5 WM983 cells, transwell, 20 hours) is reported as “abrogated UV-induced increases in melanoma invasiveness”, the “invasiveness through Matrigel” value ([1]; untreated (control) WM983 cells) is reported as “no effect on invasiveness” and the SOCE [2] is reported as “no change”. For the same molecule, the SOCE ([3]; UV5 WM983 cells, 24 hr treatment) was “markedly enhanced”, the SOCE ([3]; untreated WM983 cells, cholesterol synthesis inhibitor overnight) was “neither agent significantly affected SOCE” and the “invasion in vitro of patient cells” value [4] was “diminished invasion”. The “change in SOCE in patient samples” value [5] was “significantly enhanced SOCE”.

In the case of `COc1ccccc1[C@@H](NS(=O)(=O)c1ccc2[nH]c(=O)ccc2c1)C(=O)N(Cc1ccco1)Cc1cccs1` [OSMI1], the “invasion (Matrigel transwell)” value ([1]; SOCE-suppressed WM983 cells, siRNA targeting OGT) is reported as “reduced invasion”, the “invasion in vitro of patient cells” value [4] is reported as “diminished invasion” and the “invasion (Matrigel transwell)” value ([6]; SOCE-suppressed B16N cells, siRNA targeting OGT) is reported as “reduced invasion”.

For `O=S(=O)(c1ccccc1)N(CC(F)(F)F)c1ccc(C(O)(C(F)(F)F)C(F)(F)F)cc1` [T0901317], the melanoma metastasis (melanoma metastasis) is given as “suppressed”.

With `O=C(O)c1ccc(Nc2nc(C(F)(F)F)c(-c3ccccc3)s2)cc1` [IA65, 4-((5-Phenyl-4-(trifluoromethyl)thiazol-2-yl)amino)benzoic acid] the “invasion through Matrigel in a transwell assay” value ([1]; WM983 control, UV2, UV5, 2 μM IA65, 20 hours) was “failed to invade”, the cell viability [7] was “no effect” and the “UV-induced SOCE suppression” value ([3]; UV2 and UV5 WM983 cells, 2 μM IA65, 15 minutes) was “strikingly reversed UV-induced SOCE suppression”. For the same molecule, the SOCE ([3]; untreated (non-irradiated) WM983 cells, 2 μM IA65, 15 minutes) was “no effect”, the “SOCE (reversal of SOCE suppression)” value [8] was “reversal of SOCE suppression” and the “invasion in vitro of patient cells” value [4] was “diminished invasion”. The “invasion through Matrigel transwell” value ([6]; B16N control, UV2, UV5, O1C44, 2 μM IA65) was “inhibition of invasiveness”, the “UV-induced enhanced cell migration (scratch)” value [9] was “did not have UV-induced enhanced cell migration” and the “change in SOCE in patient samples” value [5] was “No significant effect”.

In the case of `O=C(O)Cc1cccc(OCCCN(Cc2cccc(C(F)(F)F)c2Cl)CC(c2ccccc2)c2ccccc2)c1` [GW3965], the melanoma metastasis (melanoma metastasis) is listed as “suppressed”.
